Results on three compounds are retold here after patent US8084027B2, “Combinations comprising a CDK inhibitor and a growth factor antibody or anti-mitotic” (Nerviano Medical Sciences S.r.l., priority 2006, dated 2011).

The subject of series [1] is DU145 prostate carcinoma cells. To be noted: Compound A 40 mg/kg oral BID; for Time to reach 1 g: DU145 s.c. in athymic mice, docetaxel 10 mg/kg i.v. days 10, 14, 18, in combination Compound A given between docetaxel treatments; for T-C: delay vs control to reach tumor size 1 g, docetaxel 10 mg/kg i.v. The method, then:
Balb, Nu\Nu male mice, from Harlan (Italy), were maintained in cages with paper filter cover, food and bedding sterilized and water acidified. 2.5×10^6 DU145 prostate carcinoma cells (from the American Type Culture Collection) were injected subcutaneously in athymic mice.
The treatment started 10 days later tumor cells injection when tumors were palpable. Docetaxel was prepared immediately before treatment, while COMPOUND A was prepared every 3 days, on the basis of known stability of the compound.
COMPOUND A was administered by oral route in a volume of 10 ml/kg at the doses of 40 mg/kg twice a day (BID) for 9 days (days 10 to 18). Docetaxel was administered by intravenous route in a volume of 10 ml/kg at the dose of 10 mg/kg on days 10, 14, 18 from the days of cell injection. When combined, COMPOUND A was administered in the interval between the docetaxel treatments at days 11, 12, 13, 15, 16, 17, 19, 20 and 21. Tumor growth and body weight were measured every 3 days. Tumor growth was assessed by caliper. The two diameters were recorded and the tumor weight was calculated according to the following formula: length (mm)×width^2/2. The effect of the antitumor treatment was evaluated as the delay in the onset of an exponential growth of the tumor (see for references, Anticancer drugs 7:437-60, 1996). This delay (T-C value) was defined as the difference of time (in days) required for the treatment group (T) and the control group (C) tumors to reach a predetermined size (1 g). Toxicity was evaluated on the basis of body weight reduction.

Series [2] deals with DU145 prostate carcinoma cells. Description: In vivo antitumor efficacy using the monoclonal antibody (DU145 xenograft, tumor growth delay). To be noted: COMPOUND A 40 mg/kg oral BID; for Time to reach 1 g: DU145 s.c. in athymic mice, bevacizumab 20 mg/kg i.p. days 6, 10, 14, 18, in combination COMPOUND A given between bevacizumab treatments; for T-C: delay vs control to reach tumor size 1 g. The method, then: Balb, Nu\Nu male mice, from Harlan (Italy), were maintained in cages with paper filter cover, food and bedding sterilized and water acidified. 2.5×10^6 DU145 prostate carcinoma cells (from the American Type Culture Collection) were injected subcutaneously in athymic mice. […] The treatment started 6 days later tumor cell injection when tumors were palpable. Bevacizumab was prepared immediately before treatment, while COMPOUND A was prepared every 3 days, on the basis of known stability of the compound.
COMPOUND A was administrated by oral route in a volume of 10 ml/kg at the dose of 40 mg/kg twice a day (BID) for 12 days (days 6 to 17). Bevacizumab was administered intraperitoneally in a volume of 10 ml/kg at the dose of 20 mg/kg on days 6, 10, 14, 18 from the days of tumor cells injection. When combined, COMPOUND A was administered in the interval between the bevacizumab treatments at days 7, 8, 9, 11, 12, 13, 15, 16, 17, 19, 20 and 21. Tumor growth and body weight were measured every 3 days. Tumor growth was assessed by caliper. The two diameters were recorded and the tumor weight was calculated according the following formula: length (mm)×width^2/2. The effect of the antitumor treatment was evaluated as the delay in the onset of an exponential growth of the tumor (see for references, Anticancer drugs 7:437-60, 1996). This delay (T-C value) was defined as the difference of time (in days) required for the treatment group (T) and the control group (C) tumors to reach a predetermined size (1 g). Toxicity was evaluated on the basis of body weigh reduction.

Where two headings read alike, the source gives them in different places.

Take `CNC(=O)c1nn(C)c2c1C(C)(C)Cc1cnc(Nc3ccc(N4CCN(C)CC4)cc3)nc1-2` [COMPOUND A, 8-[4-(4-methyl-piperazin-1-yl)-phenylamino]-1,4,4-trimethyl-4,5-dihydro-1H-pyrazolo[4,3-h]quinazoline-3-carboxylic acid methylamide]: the results for the “Time to reach 1 g” value in series [1] and in series [2] were 27.4 ± 2.7 days and 32.38 ± 2.7 days, respectively. In addition, the results for the “T-C” value in series [1] and in series [2] (bevacizumab 20 mg/kg i.p.) were 10.21 days and 16.88 days, respectively.

For the compound `CC(=O)O[C@@]12CO[C@@H]1C[C@H](O)[C@@]1(C)C(=O)[C@H](O)C3=C(C)[C@@H](OC(=O)[C@H](O)[C@@H](NC(=O)OC(C)(C)C)c4ccccc4)C[C@@](O)([C@@H](OC(=O)c4ccccc4)[C@H]21)C3(C)C` [Docetaxel], in series [1], the “Time to reach 1 g” value came to 22.25 ± 2.98 days and the “T-C” value worked out at 5.05 days.

Take “Bevacizumab: antibody to vascular endothelial growth factor”: in series [2], the “Time to reach 1 g” value is on record as 27.93 ± 3.44 days. Moreover, the “T-C” value in series [2] (bevacizumab 20 mg/kg i.p.) stood at 12.43 days. Besides, the Toxicity in series [2] (evaluated on the basis of body weight reduction, bevacizumab 20 mg/kg i.p.) was 0/8.
